{"source": "ChEMBL document CHEMBL1155122", "about": "“Design and optimization of aniline-substituted tetrahydroquinoline C5a receptor antagonists” (Bioorg Med Chem Lett, 2008)", "key": {"[1]": {"biological_target": "T1, C5a anaphylatoxin chemotactic receptor 1 (Homo sapiens, UniProt P21730)", "T1 sequence (P21730 whole entry)": "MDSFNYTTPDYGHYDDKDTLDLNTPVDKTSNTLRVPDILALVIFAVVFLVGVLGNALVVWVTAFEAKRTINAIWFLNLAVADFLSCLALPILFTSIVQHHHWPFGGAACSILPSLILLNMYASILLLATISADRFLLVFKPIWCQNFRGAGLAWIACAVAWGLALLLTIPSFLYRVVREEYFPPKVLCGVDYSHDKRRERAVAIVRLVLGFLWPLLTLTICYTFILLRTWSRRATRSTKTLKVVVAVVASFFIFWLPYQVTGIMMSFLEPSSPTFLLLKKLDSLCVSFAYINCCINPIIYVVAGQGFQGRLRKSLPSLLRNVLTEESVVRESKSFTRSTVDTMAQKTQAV", "assay": "Antagonist activity at human recombinant C5a receptor in U937 cells assessed as inhibition of C5a-induced calcium mobilization by FLIPR assay", "type": "functional, cell-based, U-937"}, "[2]": {"biological_target": "T1, C5a anaphylatoxin chemotactic receptor 1", "assay": "Displacement of [125I]C5a from human recombinant C5a receptor in U937 cells", "type": "cell-based, U-937"}, "[3]": {"assay": "Volume of distribution at steady state in rat at 2 mg/kg, iv", "type": "ADME, organism-based", "design": "dose 2 mg/kg, route intravenous", "conditions": "in vivo, read-out: Vdss"}, "[4]": {"assay": "Half life in rat at 10 mg/kg, po", "type": "ADME, organism-based", "design": "dose 10 mg/kg, route oral", "conditions": "in vivo"}, "[5]": {"tested_on": "Rattus norvegicus", "assay": "AUC in rat at 10 mg/kg, po", "type": "ADME, organism-based, Plasma", "design": "dose 10 mg/kg, route oral", "conditions": "in vivo"}, "[6]": {"assay": "Clearance in rat at 2 mg/kg, iv", "type": "ADME, organism-based", "design": "dose 2 mg/kg, route intravenous", "conditions": "in vivo"}, "[7]": {"assay": "Half life in rat at 2 mg/kg, iv", "type": "ADME, organism-based", "design": "dose 2 mg/kg, route intravenous", "conditions": "in vivo"}, "[8]": {"tested_on": "Rattus norvegicus", "assay": "Cmax in rat at 10 mg/kg, po", "type": "ADME, organism-based", "design": "dose 10 mg/kg, route oral", "conditions": "in vivo"}, "[9]": {"assay": "Oral bioavailability in rat at 10 mg/kg", "type": "ADME, organism-based", "conditions": "in vivo"}}, "note": "pIC50, pKi: −log10 of the molar value.", "data": [{"compound": "CCc1cccc(CC)c1-c1cc(OC)c2c(n1)CCCC2Nc1cc(F)ccc1C", "note": "(stereo unspecified)", "values": [{"measurement": "pIC50", "setting": "[1]", "result": 5.85}]}, {"compound": "CCc1cccc(CC)c1-c1cc(OC)c2c(n1)CCCC2Nc1cc(-c2ccccc2)ccc1C", "note": "(stereo unspecified)", "values": [{"measurement": "pIC50", "setting": "[1]", "result": 5.60}]}, {"compound": "CCc1cccc(CC)c1-c1cc(OC)c2c(n1)CCCC2Nc1cc(OC)ccc1-c1ccccc1", "note": "(stereo unspecified)", "values": [{"measurement": "pIC50", "setting": "[1]", "result": "< 5.00"}]}, {"compound": "CCc1cccc(CC)c1-c1cc(OC)c2c(n1)CCCC2Nc1cc(O)ccc1C", "note": "(stereo unspecified)", "values": [{"measurement": "pIC50", "setting": "[1]", "result": "< 5.00"}]}, {"compound": "CCc1cccc(CC)c1-c1cc(OC)c2c(n1)CCCC2Nc1ccc(OC)cc1C", "note": "(stereo unspecified)", "values": [{"measurement": "pIC50", "setting": "[1]", "result": 5.62}]}, {"compound": "CCc1cccc(CC)c1-c1cc(OC)c2c(n1)CCCC2Nc1ccccc1CCO", "note": "(stereo unspecified)", "values": [{"measurement": "pKi", "setting": "[2]", "result": 7.68}]}, {"compound": "CCc1cccc(CC)c1-c1cc(OC)c2c(n1)CCCC2Nc1ccccc1C(C)=O", "note": "(stereo unspecified)", "values": [{"measurement": "pIC50", "setting": "[1]", "result": "< 5.00"}]}, {"compound": "CCc1cccc(CC)c1-c1cc(OC)c2c(n1)CCCC2Nc1ccccc1C(=O)OC", "note": "(stereo unspecified)", "values": [{"measurement": "pIC50", "setting": "[1]", "result": "< 5.00"}]}, {"compound": "CCc1cccc(CC)c1-c1cc(OC)c2c(n1)CCCC2Nc1cc(OC)ccc1C", "note": "(stereo unspecified)", "values": [{"measurement": "Vd", "setting": "[3]", "result": 4.5, "unit": "L/kg"}, {"measurement": "half-life", "setting": "[4]", "result": 5.3, "unit": "h"}, {"measurement": "pIC50", "setting": "[1]", "result": 6.85}, {"measurement": "AUC", "setting": "[5]", "result": 700, "unit": "ng·h/mL"}, {"measurement": "clearance", "setting": "[6]", "result": 21, "unit": "mL/min/kg"}, {"measurement": "half-life", "setting": "[7]", "result": 6.3, "unit": "h"}, {"measurement": "Cmax", "setting": "[8]", "result": 290, "unit": "ng/mL"}, {"measurement": "bioavailability", "setting": "[9]", "result": 21, "unit": "%"}]}, {"compound": "CCc1cccc(CC)c1-c1cc(OC)c2c(n1)CCCC2Nc1ccccc1CO", "note": "(stereo unspecified)", "values": [{"measurement": "pIC50", "setting": "[1]", "result": 6.92}]}, {"compound": "CCc1cccc(CC)c1-c1cc(OC)c2c(n1)CCCC2Nc1cc(C)ccc1C", "note": "(stereo unspecified)", "values": [{"measurement": "pIC50", "setting": "[1]", "result": 6.37}]}, {"compound": "CCc1cccc(CC)c1-c1cc(OC)c2c(n1)CCCC2Nc1cc(CO)ccc1C", "note": "(stereo unspecified)", "values": [{"measurement": "pIC50", "setting": "[1]", "result": "< 5.00"}]}, {"compound": "CCc1cccc(CC)c1-c1cc(OC)c2c(n1)CCCC2Nc1ccccc1C(N)=O", "note": "(stereo unspecified)", "values": [{"measurement": "pIC50", "setting": "[1]", "result": "< 5.00"}]}, {"compound": "CCc1cccc(CC)c1-c1cc(OC(C)C)c2c(n1)CCCC2Nc1ccccc1CCO", "note": "(racemic)", "values": [{"measurement": "pIC50", "setting": "[1]", "result": 8.15}]}, {"compound": "CCc1cccc(CC)c1-c1cc(OC)c2c(n1)CCCC2N(C)c1cc(OC)ccc1OC", "note": "(racemic)", "values": [{"measurement": "pIC50", "setting": "[1]", "result": 5.59}]}, {"compound": "COc1cc(-c2c(C)cccc2C)nc2c1C(N(C)c1c(C)cccc1C)CCC2", "note": "(racemic)", "values": [{"measurement": "pIC50", "setting": "[1]", "result": "< 5.00"}]}, {"compound": "COc1cccc(N(C)C2CCCc3nc(-c4c(C)cccc4C)cc(OC)c32)c1C", "note": "(racemic)", "values": [{"measurement": "pIC50", "setting": "[1]", "result": "< 5.00"}]}, {"compound": "CCc1cccc(CC)c1-c1cc(OC)c2c(n1)CCCC2N(C)c1cc(-c2ccccc2)ccc1C", "note": "(racemic)", "values": [{"measurement": "pIC50", "setting": "[1]", "result": "< 5.00"}]}, {"compound": "CCc1cccc(CC)c1-c1cc(OC)c2c(n1)CCCC2N(C)c1cc(Cl)ccc1C", "note": "(racemic)", "values": [{"measurement": "pIC50", "setting": "[1]", "result": 5.59}]}]}
